One test addresses CDK9 (Homo sapiens (Human), UniProt P50750). As to the kind of experiment: Inhibition of kinase activity, CDK9. It is filed as biochemical. To be noted: co-factor cyclin K. As for the experimental part:
(§1) Compounds of the invention were assayed for activity against a variety of different kinases. Exemplary results are presented as calculated IC50 values (Table A1 & A2). In Table A1 and A2 “A” represents a calculated IC50 value of less than 100 nM; “B” represents a calculated IC50 value of greater than or equal to 100 nM and less than 1 μM; and “C” represents a calculated IC50 value of 1 μM or greater. The co-factors used for each kinase in the assays were as follows: CDK7: cyclin H and MNAT1; CDK2: cyclin A; CDK9: cyclin K.

The target in a further test is SRC (Homo sapiens (Human), UniProt P12931). As to the kind of experiment: Inhibition of kinase activity, SRC. Format: biochemical. The method, then: as §1
The test system of test [1] is HCT116 colorectal carcinoma. As to the kind of experiment: Inhibition of cell proliferation (CellTiter-Glo), HCT116. To be noted: Homo sapiens, HCT-116; 72 hours incubation, CellTiter-Glo, 8,000 cells/well. It is filed as cell-based. As for the experimental part: (§2) Exemplary compounds of the invention were tested at different concentrations. Cells were plated in 96-well plates at the following seeding densities: Jurkat T-cell acute lymphoblastic leukemia 25,000 cells/well; HCT116 colorectal carcinoma 8,000 cells/well; Kelly neuroblastoma 4,000 cells/well. The cells were treated with various concentration of compounds (ranging from 1 nM to 10 μM). DMSO solvent with no compound served as a control. Following incubation for 72 hours, cell survival following treatment with exemplary compounds described herein was assessed by CellTiter-Glo® Luminescent cell viability assay (Promega). IC50 values were determined using GRAPHPAD PRISM 6 software. Exemplary results are shown in Table A3, wherein “A” represents a calculated IC50 value of less than 500 nM; “B” represents a calculated IC50 value of greater than or equal to 500 nM and less than 5000 μM; and “C” represents a calculated IC50 value of 5000 μM or greater

A further test concerns the target CHEK2 (Homo sapiens (Human), UniProt O96017). Nature of the test: Inhibition of kinase activity, CHEK2. Format: biochemical. As for the experimental part: as §1
For the next test, the target named is FGR (Homo sapiens (Human), UniProt P09769). Nature of the test: Inhibition of kinase activity, FGR. Format: biochemical. As for the experimental part: as §1
The subject of test [2] is Jurkat T-cell acute lymphoblastic leukemia. Nature of the test: Inhibition of cell proliferation (CellTiter-Glo), Jurkat. Format: cell-based. To be noted: Homo sapiens, 72 hours incubation, CellTiter-Glo, 25,000 cells/well. As for the experimental part:
as §2

A further test deals with Kelly neuroblastoma. Nature of the test: Inhibition of cell proliferation (CellTiter-Glo), Kelly. It is filed as cell-based. To be noted: 72 hours incubation, CellTiter-Glo, 4,000 cells/well. The method, then: as §2
The target in another test is PRKCQ (Homo sapiens (Human), UniProt Q04759). Nature of the test: Inhibition of kinase activity, PRKCQ. It is filed as biochemical. As for the experimental part:
as §1

A further test addresses HIPK4 (Homo sapiens (Human), UniProt Q8NE63). Nature of the test: Inhibition of kinase activity, HIPK4. It is filed as biochemical. As for the experimental part:
as §1

A further test deals with MELK (Homo sapiens (Human), UniProt Q14680). As to the kind of experiment: Inhibition of kinase activity, MELK. It is filed as biochemical. As for the experimental part:
as §1

In test [3] the target is T1, CDK7 (Homo sapiens (Human), UniProt P50613). As to the kind of experiment: Inhibition of kinase activity, CDK7. To be noted: co-factors cyclin H and MNAT1. Format: biochemical. As for the experimental part: as §1
The target of a further test is CDK2 (Homo sapiens (Human), UniProt P24941). As to the kind of experiment: Inhibition of kinase activity, CDK2. To be noted: co-factor cyclin A. It is filed as biochemical. As for the experimental part: as §1
In test [4] the target is T1, CDK7. Nature of the test: Labeling of CDK7 with an inhibitor (CAK complex, nano LC-MS). To be noted: 10-fold molar excess of compound, 6 hrs at 37° C., trypsin digest. It is filed as binding. The method, then:
CAK complex (Millipore cat#14-476) in 40 mM Hepes pH 7.4, 150 mM NaCl, 5% glycerol and 1 mM DTT with protease and phosphatase inhibitors was incubated with a 10-fold molar excess of Compound 101 for 6 hrs at 37° C. Proteins were resolved by SDS-PAGE, bands corresponding to CDK7 were digested in-gel with trypsin, and peptides analyzed by nano LC-MS using an Orbitrap XL mass spectrometer (ThermoFisher Scientific, San Jose, Calif.). Efficiency of labeling was estimated from the reduction in signal of the Cys312 containing peptide […] (SEQ ID NO: 3) compared to DMSO control. Signals from CDK7 peptides VPFLPGDSDLDQLTR (SEQ ID NO: 1) and LDFLGEGQFATVYK were used for normalization. See FIG. 1 for the total ion chromatograms (TIC) and extracted ion chromatograms (EIC) of the CDK7 peptides treated with DMSO (A-D) or Compound 101 (E-H). The labeled peptide was detected by mass spectrometry, as shown in the spectrum of FIG. 2.

The target in another test is RET (Homo sapiens (Human), UniProt P07949). As to the kind of experiment: Inhibition of kinase activity, RET. Format: biochemical. The method, then: as §1

From US10870651B2, “Inhibitors of cyclin-dependent kinase 7 (CDK7)” (Dana-Farber Cancer Institute, Inc., priority 2014, dated 2020) come the findings set out here.

SMILES strings stand for the structures.

T1 sequence (P50613 whole entry): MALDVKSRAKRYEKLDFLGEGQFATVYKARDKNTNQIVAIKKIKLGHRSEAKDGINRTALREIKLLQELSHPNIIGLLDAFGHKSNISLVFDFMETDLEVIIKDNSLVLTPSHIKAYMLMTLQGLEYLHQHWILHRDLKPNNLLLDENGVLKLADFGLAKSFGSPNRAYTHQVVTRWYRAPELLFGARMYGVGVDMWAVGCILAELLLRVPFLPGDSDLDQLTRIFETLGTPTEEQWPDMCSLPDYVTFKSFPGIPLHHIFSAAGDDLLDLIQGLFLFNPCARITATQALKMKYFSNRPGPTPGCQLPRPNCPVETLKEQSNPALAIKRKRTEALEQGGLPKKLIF
T1 sequence (P51946 whole entry partner): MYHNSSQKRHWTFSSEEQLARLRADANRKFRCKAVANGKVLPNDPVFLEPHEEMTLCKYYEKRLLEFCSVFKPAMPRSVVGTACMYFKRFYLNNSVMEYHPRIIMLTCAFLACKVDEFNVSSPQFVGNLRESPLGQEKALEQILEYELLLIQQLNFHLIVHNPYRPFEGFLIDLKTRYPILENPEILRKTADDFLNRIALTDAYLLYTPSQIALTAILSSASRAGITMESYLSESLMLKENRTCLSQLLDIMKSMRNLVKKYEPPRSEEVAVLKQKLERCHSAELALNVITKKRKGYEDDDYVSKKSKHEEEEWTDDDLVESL
T1 sequence (P51948 whole entry partner): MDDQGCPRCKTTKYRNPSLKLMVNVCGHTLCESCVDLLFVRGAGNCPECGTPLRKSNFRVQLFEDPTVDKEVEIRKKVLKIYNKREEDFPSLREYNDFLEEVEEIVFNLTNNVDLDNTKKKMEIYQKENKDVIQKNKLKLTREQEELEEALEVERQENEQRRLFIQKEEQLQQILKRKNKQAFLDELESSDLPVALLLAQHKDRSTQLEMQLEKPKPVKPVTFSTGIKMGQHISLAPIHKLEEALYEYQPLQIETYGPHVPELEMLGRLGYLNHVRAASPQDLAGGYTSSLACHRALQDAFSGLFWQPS
Chain of MELK (Q14680 whole entry): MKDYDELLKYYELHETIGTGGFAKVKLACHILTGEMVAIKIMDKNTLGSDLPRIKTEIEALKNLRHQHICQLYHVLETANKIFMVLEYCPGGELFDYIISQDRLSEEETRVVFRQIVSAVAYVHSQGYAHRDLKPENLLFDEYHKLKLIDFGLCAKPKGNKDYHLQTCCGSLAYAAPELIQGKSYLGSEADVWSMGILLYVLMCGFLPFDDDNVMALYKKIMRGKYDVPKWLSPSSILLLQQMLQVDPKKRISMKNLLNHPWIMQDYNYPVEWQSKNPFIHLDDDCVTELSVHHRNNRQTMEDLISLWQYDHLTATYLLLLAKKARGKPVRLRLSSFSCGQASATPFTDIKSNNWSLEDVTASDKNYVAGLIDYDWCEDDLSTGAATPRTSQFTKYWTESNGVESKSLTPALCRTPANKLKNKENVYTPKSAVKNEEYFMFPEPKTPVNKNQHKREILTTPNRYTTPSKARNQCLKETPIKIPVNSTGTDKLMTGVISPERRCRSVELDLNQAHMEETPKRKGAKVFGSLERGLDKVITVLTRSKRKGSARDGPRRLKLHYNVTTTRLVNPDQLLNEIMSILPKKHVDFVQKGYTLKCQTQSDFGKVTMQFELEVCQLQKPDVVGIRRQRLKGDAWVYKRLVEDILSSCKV
Chain of SRC (P12931 whole entry, looked up): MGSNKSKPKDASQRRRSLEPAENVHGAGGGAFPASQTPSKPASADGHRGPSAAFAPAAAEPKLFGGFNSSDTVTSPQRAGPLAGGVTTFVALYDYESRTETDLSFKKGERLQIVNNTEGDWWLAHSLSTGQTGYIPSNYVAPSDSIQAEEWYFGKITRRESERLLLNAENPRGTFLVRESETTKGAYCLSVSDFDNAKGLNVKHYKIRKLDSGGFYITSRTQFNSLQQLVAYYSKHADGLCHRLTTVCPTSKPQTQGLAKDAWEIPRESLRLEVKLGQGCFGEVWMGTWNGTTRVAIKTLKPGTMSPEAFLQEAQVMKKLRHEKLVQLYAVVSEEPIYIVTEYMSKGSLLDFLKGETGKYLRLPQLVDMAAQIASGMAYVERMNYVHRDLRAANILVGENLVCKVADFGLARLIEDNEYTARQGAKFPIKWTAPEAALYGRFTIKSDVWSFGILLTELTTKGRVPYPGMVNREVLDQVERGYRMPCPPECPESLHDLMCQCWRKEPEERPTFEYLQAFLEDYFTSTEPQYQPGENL
Chain of CDK9 (P50750 whole entry): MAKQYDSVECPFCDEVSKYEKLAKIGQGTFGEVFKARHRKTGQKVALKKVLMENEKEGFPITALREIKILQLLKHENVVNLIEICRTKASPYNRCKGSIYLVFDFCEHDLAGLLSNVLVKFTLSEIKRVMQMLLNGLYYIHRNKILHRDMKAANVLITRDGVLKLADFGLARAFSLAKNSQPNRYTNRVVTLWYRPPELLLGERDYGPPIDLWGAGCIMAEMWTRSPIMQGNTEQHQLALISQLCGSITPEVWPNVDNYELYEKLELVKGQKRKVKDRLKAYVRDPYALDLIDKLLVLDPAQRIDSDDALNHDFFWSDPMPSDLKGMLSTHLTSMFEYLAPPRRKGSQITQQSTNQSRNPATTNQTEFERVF
Chain of CDK9 (O75909 whole entry partner): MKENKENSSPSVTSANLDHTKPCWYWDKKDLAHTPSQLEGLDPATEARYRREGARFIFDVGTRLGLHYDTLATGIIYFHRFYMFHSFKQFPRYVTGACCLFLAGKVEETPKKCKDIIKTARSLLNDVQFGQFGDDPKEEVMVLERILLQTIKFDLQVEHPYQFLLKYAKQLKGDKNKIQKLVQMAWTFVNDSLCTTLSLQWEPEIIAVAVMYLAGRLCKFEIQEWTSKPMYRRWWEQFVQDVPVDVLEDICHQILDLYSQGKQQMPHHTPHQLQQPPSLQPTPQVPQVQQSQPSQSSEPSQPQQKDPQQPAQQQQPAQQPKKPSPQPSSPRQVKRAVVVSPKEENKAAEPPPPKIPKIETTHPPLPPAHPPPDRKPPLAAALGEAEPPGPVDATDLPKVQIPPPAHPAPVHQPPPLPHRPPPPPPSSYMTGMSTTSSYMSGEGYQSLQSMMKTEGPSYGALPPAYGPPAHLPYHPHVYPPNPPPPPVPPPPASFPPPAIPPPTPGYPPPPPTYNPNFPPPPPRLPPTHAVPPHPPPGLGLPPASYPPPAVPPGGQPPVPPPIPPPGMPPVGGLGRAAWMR
Chain of RET (P07949 29-1114): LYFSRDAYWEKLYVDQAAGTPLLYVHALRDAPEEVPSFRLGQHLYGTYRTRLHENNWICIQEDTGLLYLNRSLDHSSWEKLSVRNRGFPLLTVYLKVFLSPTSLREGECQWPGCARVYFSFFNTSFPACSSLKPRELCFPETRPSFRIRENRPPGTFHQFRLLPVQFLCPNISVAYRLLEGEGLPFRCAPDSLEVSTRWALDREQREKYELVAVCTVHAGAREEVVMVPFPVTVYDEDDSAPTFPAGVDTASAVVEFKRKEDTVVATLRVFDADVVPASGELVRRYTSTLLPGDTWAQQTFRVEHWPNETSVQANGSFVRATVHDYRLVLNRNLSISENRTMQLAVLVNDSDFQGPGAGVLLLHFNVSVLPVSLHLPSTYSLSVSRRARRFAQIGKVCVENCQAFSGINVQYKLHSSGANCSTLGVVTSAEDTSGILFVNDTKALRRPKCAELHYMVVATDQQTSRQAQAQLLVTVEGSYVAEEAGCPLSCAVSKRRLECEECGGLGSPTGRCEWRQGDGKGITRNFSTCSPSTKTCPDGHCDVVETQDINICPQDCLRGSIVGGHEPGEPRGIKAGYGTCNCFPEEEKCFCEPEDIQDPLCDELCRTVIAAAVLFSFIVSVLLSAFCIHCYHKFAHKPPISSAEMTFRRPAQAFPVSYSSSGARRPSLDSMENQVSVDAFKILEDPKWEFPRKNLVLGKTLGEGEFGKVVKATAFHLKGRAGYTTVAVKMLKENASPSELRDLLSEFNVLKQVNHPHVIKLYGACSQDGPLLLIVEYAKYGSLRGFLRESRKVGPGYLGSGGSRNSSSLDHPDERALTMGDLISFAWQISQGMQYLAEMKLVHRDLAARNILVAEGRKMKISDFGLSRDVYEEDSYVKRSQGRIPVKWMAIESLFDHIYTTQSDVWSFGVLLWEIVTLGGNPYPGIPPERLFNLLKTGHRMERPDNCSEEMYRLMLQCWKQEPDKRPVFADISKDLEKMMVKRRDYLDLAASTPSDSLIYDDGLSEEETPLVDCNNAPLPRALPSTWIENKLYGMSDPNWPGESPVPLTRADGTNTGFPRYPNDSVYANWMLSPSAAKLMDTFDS
Chain of FGR (P09769 whole entry): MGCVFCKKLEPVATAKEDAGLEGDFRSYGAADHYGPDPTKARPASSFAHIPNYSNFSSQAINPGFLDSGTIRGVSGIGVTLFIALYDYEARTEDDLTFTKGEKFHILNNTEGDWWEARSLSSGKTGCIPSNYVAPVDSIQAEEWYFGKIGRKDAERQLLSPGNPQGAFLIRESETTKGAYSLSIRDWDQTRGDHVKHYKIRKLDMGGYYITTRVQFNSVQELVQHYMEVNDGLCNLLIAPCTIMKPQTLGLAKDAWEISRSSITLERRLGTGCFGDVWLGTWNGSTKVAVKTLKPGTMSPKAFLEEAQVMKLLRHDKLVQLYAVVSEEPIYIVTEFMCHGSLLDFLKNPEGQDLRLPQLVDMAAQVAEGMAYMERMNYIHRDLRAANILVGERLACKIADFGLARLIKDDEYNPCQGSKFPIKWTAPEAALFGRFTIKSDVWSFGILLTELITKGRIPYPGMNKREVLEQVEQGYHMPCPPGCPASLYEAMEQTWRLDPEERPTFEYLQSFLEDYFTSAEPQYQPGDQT

Consider `C=CC(=O)Nc1ccc(C(=O)Nc2cccc(Nc3n[nH]c4c3CN(C(=O)N[C@H](CN(C)C)c3ccccc3)C4(C)C)c2)cc1` [Compound 101, (S)-3-((3-(4-acrylamidobenzamido)phenyl)amino)-N-(2-(dimethylamino)-1-phenylethyl)-6,6-dimethyl-4,6-dihydropyrrolo[3,4-c]pyrazole-5(1H)-carboxamide], for which the IC50 at CDK9 was ≥ 1 µM; at SRC, < 0.1 µM; in [1] it was < 0.5 µM; against CHEK2, < 0.1 µM; against FGR, < 0.1 µM; in [2], < 0.5 µM. The IC50 in the test on Kelly neuroblastoma was 0.5 to 5000 µM; on PRKCQ it was < 0.1 µM; against HIPK4, 0.1 to 1 µM; against MELK it was 0.1 to 1 µM; against CDK7 [3] it was < 0.1 µM; against CDK2 it was ≥ 1 µM. In addition, the IC50 against RET is < 0.1 µM. Moreover, the “Covalent labeling of CDK7 peptide detected by mass spectrometry” value at CDK7 [4] is “labeled with Compound 101 at Cys312”.

On to `C=CC(=O)Nc1ccc(C(=O)Nc2ccc(Nc3n[nH]c4c3CN(C(=O)N[C@H](CN(C)C)c3ccccc3)C4(C)C)cc2)cc1` [Compound 102, (S)-3-((4-(4-acrylamidobenzamido)phenyl)amino)-N-(2-(dimethylamino)-1-phenylethyl)-6,6-dimethyl-4,6-dihydropyrrolo[3,4-c]pyrazole-5(1H)-carboxamide], for which the IC50 in the test on Kelly neuroblastoma was ≥ 5000 µM; on CDK7 [3] it was < 0.1 µM.

For `CCC(=O)Nc1ccc(C(=O)Nc2cccc(Nc3n[nH]c4c3CN(C(=O)N[C@H](CN(C)C)c3ccccc3)C4(C)C)c2)cc1` [Compound 104, (S)-N-(2-(dimethylamino)-1-phenylethyl)-6,6-dimethyl-3-((3-(4-propionamidobenzamido)phenyl)amino)-4,6-dihydropyrrolo[3,4-c]pyrazole-5(1H)-carboxamide], the values for the IC50 (in test [1]; in test [2]; against CDK7 [3]) were 0.5 to 5000 µM, 0.5 to 5000 µM and < 0.1 µM, respectively.

Turning to `C=CC(=O)Nc1ccc(C(=O)Nc2cccc(Nc3n[nH]c4c3CN(C(=O)NCCN(C)C)C4(C)C)c2)cc1` [Compound 106, 3-((3-(4-acrylamidobenzamido)phenyl)amimo)-N-(2-(dimethylamino)ethyl)-6,6-dimethyl-4,6-dihydropyrrolo[3,4-c]pyrazole-5(1H)-carboxamide], the IC50 was ≥ 5000 µM with Kelly neuroblastoma, 0.1 to 1 µM against MELK and 0.1 to 1 µM against CDK7 [3].

For `C=CC(=O)Nc1ccc(C(=O)Nc2cccc(Nc3n[nH]c4c3CN(C(=O)N3CCN(C)CC3)C4(C)C)c2)cc1` [Compound 107, 4-acrylamido-N-(3-((6,6-dimethyl-5-(4-methylpiperazine-1-carbonyl)-1,4,5,6-tetrahydropyrrolo[3,4-c]pyrazol-3-yl)amino)phenyl)benzamide], the IC50 in test [2] was 0.5 to 5000 µM; at CDK7 [3], < 0.1 µM.

Take `C=CC(=O)Nc1ccc(C(=O)Nc2cccc(C(=O)Nc3n[nH]c4c3CN(C(=O)N[C@H](CN(C)C)c3ccccc3)C4(C)C)c2)cc1` [Compound 112, (S)-3-(3-(4-acrylamidobenzamido)benzamido)-N-(2-(dimethylamino)-1-phenylethyl)-6,6-dimethyl-4,6-dihydropyrrolo[3,4-c]pyrazole-5(1H)-carboxamide]: the IC50 in the test on Kelly neuroblastoma is 0.5 to 5000 µM; on CDK7 [3], < 0.1 µM.

Turning to `C=CC(=O)Nc1ccc(C(=O)Nc2n[nH]c3c2CN(C(=O)N[C@H](CN(C)C)c2ccccc2)C32CCCCC2)cc1` [Compound 236, (S)-3′-(4-acrylamidobenzamido)-N-(2-(dimethylamino)-1-phenylethyl)-1′,4′-dihydro-5′H-spiro(cyclohexane-1,6′-pyrrolo[3,4-c]pyrazole]-5′-carboxamide], the IC50 against CDK7 [3] fell in the range of 0.1 to 1 µM.

As to `C=CC(=O)Nc1ccc(C(=O)Nc2n[nH]c3c2CN(C(=O)N[C@H](CN(C)C)c2ccccc2)[C@@H]3c2ccccc2)cc1` [Compound 237, (R)-3-(4-acrylamidobenzamido)-N-((S)-2-(dimethylamino)-1-phenylethyl)-6-phenyl-4,6-dihydropyrrolo[3,4-c]pyrazole-5(1H)-carboxamide], on CDK7 [3], the IC50 is ≥ 1 µM.

Regarding `C=CC(=O)Nc1ccc(C(=O)Nc2n[nH]c3c2CN(C(=O)N[C@H](CN(C)C)c2ccccc2)[C@H]3c2ccccc2)cc1` [Compound 239, (S)-3-(4-acrylamidobenzamido)-N-((S)-2-(dimethylamino)-1-phenylethyl)-6-phenyl-4,6-dihydropyrrolo[3,4-c]pyrazole-5(1H)-carboxamide], on CDK7 [3], the IC50 was ≥ 1 µM.

As to `C=CC(=O)Nc1cccc(C(=O)Nc2nn(C)c3c2CN(C(=O)N[C@H](CN(C)C)c2ccccc2)C3(C)C)c1` [Compound 241, (S)-3-(3-acrylamidobenzamido)-N-(2-(dimethylamino)-1-phenylethyl)-1,6,6-trimethyl-4,6-dihydropyrrolo[3,4-c]pyrazole-5(1H)-carboxamide], the IC50 against CDK7 [3] was < 0.1 µM.

Consider `C=CC(=O)Nc1ccc(C(=O)Nc2c3c(nn2C)C(C)(C)N(C(=O)N[C@H](CN(C)C)c2ccccc2)C3)cc1` [Compound 242, (S)-3-(4-acrylamidobenzamido)-N-(2-(dimethylamino)-1-phenylethyl)-2,6,6-trimethyl-2,6-dihydropyrrolo[3,4-c]pyrazole-5(4H)-carboxamide], for which the IC50 on CDK7 [3] was ≥ 1 µM.

Regarding `C=CC(=O)Nc1ccc(C(=O)Nc2nn(C)c3c2CN(C(=O)N[C@H](CN(C)C)c2ccccc2)C3(C)C)c(OC)c1` [Compound 243, (S)-3-(4-acrylamido-2-methoxybenzamido)-N-(2-(dimethylamino)-1-phenylethyl)-1,6,6-trimethyl-4,6-dihydropyrrolo[3,4-c]pyrazole-5(1H)-carboxamide], the IC50 on CDK7 [3] is ≥ 1 µM.

Take `C=CC(=O)Nc1ccc(C(=O)Nc2c3c(nn2C)C(C)(C)N(C(=O)N[C@H](CN(C)C)c2ccccc2)C3)c(OC)c1` [Compound 244, (S)-3-(4-acrylamido-2-methoxybenzamido)-N-(2-(dimethylamino)-1-phenylethyl)-2,6,6-trimethyl-2,6-dihydropyrrolo[3,4-c]pyrazole-5(4H)-carboxamide]: the IC50 against CDK7 [3] is ≥ 1 µM.

`C=CC(=O)Nc1ccc(C(=O)Nc2nn(C)c3c2CN(C(=O)O[C@H](CN(C)C)c2ccccc2)C3(C)C)cc1` [Compound 246, (S)-2-(dimethylamino)-1-phenylethyl 3-(4-acrylamidobenzamido)-1,6,6-trimethyl-4,6-dihydropyrrolo[3,4-c]pyrazole-5(1H)-carboxylate] had an IC50 against CDK7 [3] of 0.1 to 1 µM.
